From patent publication US4593119A, “Method for treatment or prophylaxis of cardiac disorders” (American Hospital Supply Corporation, priority 1982, dated 1986)
Where a name gives a salt, the structure may show the parent alone. Read-outs that look alike come from different tables or passages of the source.

What was measured:
[1] = disappearance in vitro in dog liver homogenate; assay type: in vitro ADME; conditions: 33% (w/v) dog liver homogenate, 37° C., 50 μg test compound; read-out: T1/2 Dog Liver
Method: (§1) The rate of disappearance of a compound is expressed as the half-life (T1/2), which is the time period in which one-half of the initial amount of compound tested disappears. […] At the designated time periods, the test mixtures were removed from the incubator and transferred to a 0° C. ice bath. Acetonitrile (2 mL) was immediately added, and the mixtures were mixed to stop enzymatic hydrolysis. Zero time samples were prepared by adding 2 mL of acetonitrile to denature the proteins prior to addition of the test compounds. […] The half-life of each test compound was determined graphically by plotting the decrease in concentration as a function of time.

[2] = target: T1, β-adrenergic receptors, guinea pig tracheal strips (Cavia porcellus, UniProt Q8K4Z4); assay: β-blocking activity in vitro, guinea pig tracheal strips (tension response to isoproterenol); assay type: cell-based; conditions: for Kb: read-out: pA2 Trachea (converted); for pA2 Trachea: pA2 = -log KB, vs isoproterenol, 60-minute incubation, tracheal tension
T1 construct: Spiral strips of guinea pig trachea; from tissue; host or cells: guinea pig trachea, spiral strips
Method: (§2) Each tissue was suspended between a fixed glass rod and a Statham Universal Transducer connected to a Beckman recorder. Atria were allowed to beat spontaneously under a loading tension of approximately 0.5 g. Changes in rate of response to isoproterenol, a standard β-receptor agonist, were measured in the absence and presence of test compounds. Spiral strips of guinea pig trachea were suspended under 5 g resting tension and incubated with phentolamine, tropolone, and cocaine. Active tension was generated by addition of carbachol (3.0×10^-7 M) and decreases in tension in response to isoproterenol were quantitated. Cumulative concentration response curves were produced with isoproterenol both before and after 60-minute incubation of test compounds with atria and trachea. Compounds with β-blocking activitiy shifted concentration response curves to the right. […] The degree of cardioselectivity was estimated from the ratio KB trachea/KB atria 10(pA2 Atria -pA^2 Trachea). A ratio greater than one indicates cardioselectivity. […]

[3] = system: heart rate response to isoproterenol (dog); assay: beta-blockade in vivo in pentobarbital-anesthetized dogs, 3-hour infusion, inhibition of heart rate response to isoproterenol and recovery; conditions: 80% recovery after 3-hour infusion
Method: (§3) The duration of beta-blockage was determined in vivo using pentobarbital-anesthetized dogs instrumented for measurement of heart rate using a Beckman cardiotachometer triggered electronically by a phasic aortic blood pressure signal. Both vagus nerves were severed in the cervical region and the animals were mechanically ventilated. Two experimental designs were used. The first employed a 40-minute infusion of test compound and the second used a 3-hour infusion of test compound. In the 40-minute model, isoproterenol was infused into a foreleg vein at the rate of […] to induce a beta-receptor mediated tachcardia. Various doses of test compound were then infused into a femoral vein over a period of 40 minutes. This infusion was then terminated and recovery from blockade was quantitated. […] This cumulative dose is expressed as mg/kg and is an indication of potency. The time period required for 80% recovery of heart rate for each dose of test drug was also measured to quantitate duration of action. […] Test compound were dissolved in 0.9% NaCl and infused at a rate of 0.05 ml/Mg/min or less. In the 3-hour infusion model, bolus doses of isoproterenol ([…]) were used to assess the degree of beta-blockade and recovery from beta-blockage after termination of the infusion. The doses were spaced at 10-minute intervals and were given before, during and following the infusion of test compounds. The infusion rate was adjusted so that the end of the 3-hour infusion period the degree of isoproterenol inhibition averaged about 50% of control.

[4] = disappearance in vitro in dog whole blood; assay type: in vitro ADME; conditions: 37° C., 50 μg test compound, read-out: T1/2 Dog Blood
Method: as §1

[5] = system: beta-receptor mediated tachycardia (dog heart rate); assay: beta-blockade in vivo in pentobarbital-anesthetized dogs, 40-minute infusion, inhibition of heart rate response to isoproterenol and recovery
Method: as §3

[6] = system: β-adrenergic receptors, guinea pig right atria; assay: β-blocking activity in vitro, guinea pig right atria (rate response to isoproterenol); assay type: cell-based
Method: as §2

[7] = disappearance in vitro in human whole blood; assay type: in vitro ADME; conditions: 37° C., 50 μg test compound, read-out: T1/2 Human Blood
Method: as §1

[8] = target: β-adrenergic receptors, guinea pig right atria (Cavia porcellus, UniProt H0W3H1); assay: β-blocking activity in vitro, guinea pig right atria (rate response to isoproterenol); assay type: cell-based; conditions: read-out: pA2 Atria (converted)
Method: as §2

[9] = Canis lupus familiaris, iv, 40 min; read-out: Potency mg/kg/40 min
[10] = time for 80% recovery of heart rate after 40-minute i.v. infusion, dogs; in min
[11] = ratio KB trachea/KB atria, greater than one indicates cardioselectivity

β-adrenergic receptors, guinea pig right atria (Cavia porcellus, UniProt H0W3H1), sequence (H0W3H1 1-470): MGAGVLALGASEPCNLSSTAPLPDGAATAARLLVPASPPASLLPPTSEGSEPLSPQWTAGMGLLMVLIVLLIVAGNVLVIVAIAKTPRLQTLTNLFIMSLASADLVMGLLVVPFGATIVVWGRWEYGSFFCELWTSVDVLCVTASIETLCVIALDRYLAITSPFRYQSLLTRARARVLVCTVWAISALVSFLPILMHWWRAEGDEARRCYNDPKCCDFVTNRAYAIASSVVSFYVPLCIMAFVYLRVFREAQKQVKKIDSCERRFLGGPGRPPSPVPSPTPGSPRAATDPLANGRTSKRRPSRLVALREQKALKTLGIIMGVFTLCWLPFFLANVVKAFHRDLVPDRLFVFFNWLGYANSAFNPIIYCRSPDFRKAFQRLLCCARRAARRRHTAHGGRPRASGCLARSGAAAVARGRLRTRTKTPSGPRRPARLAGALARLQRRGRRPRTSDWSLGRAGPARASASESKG
T1 sequence (Q8K4Z4 whole entry): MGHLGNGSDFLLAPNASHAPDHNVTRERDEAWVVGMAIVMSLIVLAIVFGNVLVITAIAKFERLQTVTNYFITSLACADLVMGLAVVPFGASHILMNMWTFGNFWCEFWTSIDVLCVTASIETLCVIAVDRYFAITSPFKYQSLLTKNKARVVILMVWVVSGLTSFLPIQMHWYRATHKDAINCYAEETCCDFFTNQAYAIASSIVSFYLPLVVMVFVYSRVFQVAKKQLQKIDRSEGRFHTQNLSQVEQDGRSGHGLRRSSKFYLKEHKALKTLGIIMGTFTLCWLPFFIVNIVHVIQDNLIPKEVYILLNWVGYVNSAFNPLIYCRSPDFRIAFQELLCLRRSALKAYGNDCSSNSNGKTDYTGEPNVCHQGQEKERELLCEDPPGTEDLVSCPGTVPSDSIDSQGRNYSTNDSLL

| SMILES | half-life [1] | 80% Recovery Time ([3]; in min) | half-life [4] | ED50 [5, 9] | 80% Recovery Time [5, 10] | Cardioselectivity [6, 11] | half-life [7] | pA2 Trachea [2] | further results |
| --- | --- | --- | --- | --- | --- | --- | --- | --- | --- |
| COC(=O)CCc1ccc(OCC(O)CNC(C)C)cc1.Cl (stereo not shown) [Example IV, Methyl 3-[4-[2-Hydroxy-3-(isopropylamino)propoxy]-phenyl]propionate Hydrochloride] | < 5 min | 12 ± 3 | 41 min | 1.35 ± 0.52 mg/kg | 12 ± 2 | 30 | 44 min |  | Kb [2]: 2510 nM |
| COC(=O)c1ccccc1OCC(O)CNC(C)C (stereo not shown) [Example IX, Methyl 2-[2-Hydroxy-3-(isopropylamino)propoxy]benzoate] | 19 min | 15 ± 2 | 38 min | 0.176 ± 0.02 mg/kg | 15 ± 2 | 2 | 7 min | 7.9 | Kb [8]: 6.31 nM |
| COC(=O)Cc1ccc(OCC(O)CNC(C)C)cc1.Cl (stereo not shown) [III, Methyl 4-[2-Hydroxy-3-(isopropylamino)propoxy]phenylacetate hydrochloride] | 5 min |  | 60 min | 2.3 ± 0.6 mg/kg | 20 ± 5 |  | 2 min | 5.4 |  |
| CC(=O)Nc1ccc(OCC(O)CNC(C)C)cc1 (stereo not shown) [Practolol, reference compound] |  |  |  |  |  |  |  |  | 80% Recovery Time [3]: > 60 min; 80% Recovery Time ([5]; time for 80% recovery of heart rate after 40-minute i.v. infusion, dogs): 61 min |
| COC(=O)c1ccc(OCC(O)CNC(C)(C)C)cc1 (stereo not shown) [VIII, Methyl 4-[2-Hydroxy-3-(t-butylamino)propoxy]benzoate] |  |  |  |  |  |  |  | 5.4 | Cardioselectivity [6]: 32 |
| COC(=O)c1ccccc1OCC(O)CNC(C)(C)C (stereo not shown) [Example X, Methyl 2-[2-Hydroxy-3-(t-butylamino)propoxy]benzoate Hydrochloride Hemihydrate] | 5 min | 22 ± 5 | 17 min | 0.14 ± 0.04 mg/kg | 12 ± 1 |  | 7 min |  |  |
| C=CCOC(=O)c1cccc(OCC(O)CNC(C)C)c1 (stereo not shown) [Example XV] |  |  |  |  |  |  |  |  | Kb [2]: 63.1 nM; 80% Recovery Time [3]: > 60 min; Kb [8]: 126 nM; Cardioselectivity [6]: 2 |
| COC(=O)CCc1ccc(OCC(O)CNCCc2ccc(OC)c(OC)c2)cc1 (stereo not shown) [VI] | 2 min | 14 ± 3 | 13 min |  |  |  | 44 min | 5.2 | Cardioselectivity [6]: 20 |
| C=CCOC(=O)c1ccc(OCC(O)CNC(C)C)cc1 (stereo not shown) [Example XIV, 3-Propenyl 4-[2-Hydroxy-3-(isopropylamino)propoxy]benzoate] |  |  |  |  |  | 4 |  |  | Kb [2]: 2000 nM; Kb [8]: 501 nM |
| C=CCOC(=O)c1ccccc1OCC(O)CNC(C)C (stereo not shown) [Example XVI] |  | 36 ± 5 |  |  |  | 1 |  |  | Kb [2]: 12.6 nM; Kb [8]: 12.6 nM |
| COC(=O)CCc1ccccc1OCC(O)CNC(C)C (stereo not shown) [XIII] | < 2.5 min | 29 ± 6 | 120 min |  |  |  | 11 min |  |  |
| COC(=O)c1ccccc1OCC(O)CNCCc1ccc(OC)c(OC)c1.O=C(O)C(=O)O (stereo not shown) [Example XI, Methyl 2-[2-Hydroxy-3-(3,4-dimethoxyphenethylamino)propoxy]benzoate Oxalate] | 3 min | 30 ± 4 | 120 min |  |  | 16 | 8 min | 7.1 |  |
| COC(=O)c1ccc(OCC(O)CNC(C)C)cc1.Cl (stereo not shown) [Example I, Methyl 4-[2-Hydroxy 3-(isopropylamino)propoxy]benzoate Hydrochloride] | > 180 min |  | 60 min | 3.7 ± 1.3 mg/kg | 34 ± 11 | 19 | > 60 min | 5.5 |  |
| CC(C)NCC(O)COc1cccc2ccccc12 (stereo not shown) [Propranolol, reference compound] |  |  |  |  |  |  |  |  | ED50 ([5]; Canis lupus familiaris, iv, 40 min, read-out: Potency mg/kg/40 min): 0.06 ± 0.01 mg/kg; 80% Recovery Time ([5]; iv, 40 min): 42 ± 9 |
| COC(=O)CCc1ccc(OCC(O)CNC(C)(C)C)cc1 (stereo not shown) [V] |  | 15 ± 3 |  | 4.5 ± 1.5 mg/kg | 7 ± 2 | 4 |  | 5.9 |  |
| CCCOC(=O)CCc1ccc(OCC(O)CNC(C)C)cc1.Cl (stereo not shown) [XII, n-Propyl 3-[4-[2-Hydroxy-3-(isopropylamino)propoxy]phenyl]propionate Hydrochloride] |  |  |  |  |  | 1.6 |  | 5.2 |  |
| CCOC(=O)c1ccc(OCC(O)CNC(C)C)cc1.Cl (stereo not shown) [II, Ethyl 4-[2-Hydroxy-3-(isopropylamino)propoxy]benzoate Hydrochloride] |  |  | 60 min | 5.7 ± 1.6 mg/kg | 56 ± 6 | 2.5 | > 60 min | 6.1 |  |
